The source of these data is patent publication US6350766B1, “Dihydropyridine derivative” (Ajinomoto Co., Inc., priority 1997, dated 2002).

The test system of one assay is L-type calcium channel. The experiment in a line: L-type calcium channel inhibition.
A further assay deals with T1, N-type calcium channel (Rattus norvegicus, UniProt Q02294).
T1 construct: from tissue; host or cells: freshly dissociated sympathetic ganglion cells of Wistar rats (2 to 4 weeks old)
The experiment in a line: Inhibition of N-type calcium channel: calcium currents in cells of maxillary sympathetic ganglions of rats, whole cell voltage clamp. Conditions: rat maxillary sympathetic ganglion cells, depolarization from -60 mV to 0 mV, barium as charge carrier. In kind it is cell-based. Here is the method:
(Test Examples) Inhibition activity of N-type calcium channel:
1) Preparation of cells of maxillary sympathetic ganglions of rats:
The cervix of each of Wistar rats (2 to 4 weeks old) was opened to expose the maxillary ganglions under anesthesia with pentobarbital. A pair of the ganglions were removed and immediately washed with Ca^2+-free Tyrode solution cooled with ice. Each ganglion was cut into 3 or 4 pieces and kept in the Ca^2+-free Tyrode solution for 15 minutes. Then, these pieces were treated with papain [Washington Biochemicals (lot#35J557); 20 U/ml] and then with a mixture of type-2 collagenase [Washington Biochemicals (CLS2); 5900 U/ml] and dispase [Calbiochem (lot#1312973); 16 mg/ml] for one hour. After enzymatic treatment, the ganglion cells were mechanically isolated by pipetting. The isolated ganglion cells were used for the experiments within 6 hours.
2) Determination of calcium electric current:
The calcium electric current was determined by the whole cell voltage clamp method under the fixed membrane potential. The pipette electrode was pulled from glass tube (inner diameter: 1.5 mm; Narishige) in two stage of a vertical pipette puller (PB-7; Narishige). The ionic current was amplified with a patch amplifier (CEZ-2300; Nihon Kohden Corporation). The noises were cut at 10 kHz (E-3201B, NF Electronic Instrument) and then the ionic current was monitored on a storage oscilloscope (DS-9121, Iwatsu) and, at the same time, recorded with a DAT data recorder (RD-120TE, TEAC). Then it was passed through a 1 kHz filter and recorded in a computer (Compaq DeskPro) with PCLAMP software (Axon Instrument) of 3 kHz. All the experiments were performed at room temperature (25±2° C.). In the measurement of current through the calcium channel, 10 mM barium (composition of the solution: shown below) was used in place of calcium as the charge carrier. The transmission of barium through the calcium channel was better than that of calcium in the sympathetic ganglion cells, and the calcium-dependent channel inactivation was slight when barium was used.
The test compounds were rapidly administered by Y-tube method by Murase et al. [Brain Res. 525, 84 (1990)]. Each compound was dissolved in DMSO, preparing 10 mM mother solution. At the highest drug concentration used, the vehicle (0.1%) had no significant effect on the calcium current.
2) Composition of Normal Tyrode's solution: NaCl; 143, KCl; 4, MgCl2; 0.5; CaCl2; 1.8, glucose; 5.5, NaH2PO4; 0.33, HEPES; 5 (Mm). The pH was adjusted to 7.4 with tris-OH. Composition of Ca-free Tyrode's solution: the same as that of the Normal Tyrode's solution except that it was free of CaCl2.
External solution for the determination of calcium electric current (mM): TEACL; 144, CsCl; 4, BaCl2; […], MgCl2; 0.53, glucose: 5.5, HEPES; 5 (pH 7.4)
Solution in patch electrode: CsCl; 140, MgCl2; 5, CaCl2; 0.28, HEPES; 10 (pH 7.2), EGTA; 5 (pH 7.2).
The electric current was induced by the depolarization for 50 ms, from the holding potential of −60 mV to the test potential of 0 mV. This test potential was the peak in the current/voltage relationship, and the inhibition effect was examined at this point at which the error by the drift of the holding potential was reduced. As Tsein et al. reported, the maxillary ganglion cells were substantially free of L-type component (not more than 5%), and at least 85% thereof comprised the N-type component. […] The inhibition activity of the dihydropyridine derivatives (1 uM) thus determined was 10 to 70%.

pIC50: −log10 of the molar value.

T1 sequence (Q02294 whole entry): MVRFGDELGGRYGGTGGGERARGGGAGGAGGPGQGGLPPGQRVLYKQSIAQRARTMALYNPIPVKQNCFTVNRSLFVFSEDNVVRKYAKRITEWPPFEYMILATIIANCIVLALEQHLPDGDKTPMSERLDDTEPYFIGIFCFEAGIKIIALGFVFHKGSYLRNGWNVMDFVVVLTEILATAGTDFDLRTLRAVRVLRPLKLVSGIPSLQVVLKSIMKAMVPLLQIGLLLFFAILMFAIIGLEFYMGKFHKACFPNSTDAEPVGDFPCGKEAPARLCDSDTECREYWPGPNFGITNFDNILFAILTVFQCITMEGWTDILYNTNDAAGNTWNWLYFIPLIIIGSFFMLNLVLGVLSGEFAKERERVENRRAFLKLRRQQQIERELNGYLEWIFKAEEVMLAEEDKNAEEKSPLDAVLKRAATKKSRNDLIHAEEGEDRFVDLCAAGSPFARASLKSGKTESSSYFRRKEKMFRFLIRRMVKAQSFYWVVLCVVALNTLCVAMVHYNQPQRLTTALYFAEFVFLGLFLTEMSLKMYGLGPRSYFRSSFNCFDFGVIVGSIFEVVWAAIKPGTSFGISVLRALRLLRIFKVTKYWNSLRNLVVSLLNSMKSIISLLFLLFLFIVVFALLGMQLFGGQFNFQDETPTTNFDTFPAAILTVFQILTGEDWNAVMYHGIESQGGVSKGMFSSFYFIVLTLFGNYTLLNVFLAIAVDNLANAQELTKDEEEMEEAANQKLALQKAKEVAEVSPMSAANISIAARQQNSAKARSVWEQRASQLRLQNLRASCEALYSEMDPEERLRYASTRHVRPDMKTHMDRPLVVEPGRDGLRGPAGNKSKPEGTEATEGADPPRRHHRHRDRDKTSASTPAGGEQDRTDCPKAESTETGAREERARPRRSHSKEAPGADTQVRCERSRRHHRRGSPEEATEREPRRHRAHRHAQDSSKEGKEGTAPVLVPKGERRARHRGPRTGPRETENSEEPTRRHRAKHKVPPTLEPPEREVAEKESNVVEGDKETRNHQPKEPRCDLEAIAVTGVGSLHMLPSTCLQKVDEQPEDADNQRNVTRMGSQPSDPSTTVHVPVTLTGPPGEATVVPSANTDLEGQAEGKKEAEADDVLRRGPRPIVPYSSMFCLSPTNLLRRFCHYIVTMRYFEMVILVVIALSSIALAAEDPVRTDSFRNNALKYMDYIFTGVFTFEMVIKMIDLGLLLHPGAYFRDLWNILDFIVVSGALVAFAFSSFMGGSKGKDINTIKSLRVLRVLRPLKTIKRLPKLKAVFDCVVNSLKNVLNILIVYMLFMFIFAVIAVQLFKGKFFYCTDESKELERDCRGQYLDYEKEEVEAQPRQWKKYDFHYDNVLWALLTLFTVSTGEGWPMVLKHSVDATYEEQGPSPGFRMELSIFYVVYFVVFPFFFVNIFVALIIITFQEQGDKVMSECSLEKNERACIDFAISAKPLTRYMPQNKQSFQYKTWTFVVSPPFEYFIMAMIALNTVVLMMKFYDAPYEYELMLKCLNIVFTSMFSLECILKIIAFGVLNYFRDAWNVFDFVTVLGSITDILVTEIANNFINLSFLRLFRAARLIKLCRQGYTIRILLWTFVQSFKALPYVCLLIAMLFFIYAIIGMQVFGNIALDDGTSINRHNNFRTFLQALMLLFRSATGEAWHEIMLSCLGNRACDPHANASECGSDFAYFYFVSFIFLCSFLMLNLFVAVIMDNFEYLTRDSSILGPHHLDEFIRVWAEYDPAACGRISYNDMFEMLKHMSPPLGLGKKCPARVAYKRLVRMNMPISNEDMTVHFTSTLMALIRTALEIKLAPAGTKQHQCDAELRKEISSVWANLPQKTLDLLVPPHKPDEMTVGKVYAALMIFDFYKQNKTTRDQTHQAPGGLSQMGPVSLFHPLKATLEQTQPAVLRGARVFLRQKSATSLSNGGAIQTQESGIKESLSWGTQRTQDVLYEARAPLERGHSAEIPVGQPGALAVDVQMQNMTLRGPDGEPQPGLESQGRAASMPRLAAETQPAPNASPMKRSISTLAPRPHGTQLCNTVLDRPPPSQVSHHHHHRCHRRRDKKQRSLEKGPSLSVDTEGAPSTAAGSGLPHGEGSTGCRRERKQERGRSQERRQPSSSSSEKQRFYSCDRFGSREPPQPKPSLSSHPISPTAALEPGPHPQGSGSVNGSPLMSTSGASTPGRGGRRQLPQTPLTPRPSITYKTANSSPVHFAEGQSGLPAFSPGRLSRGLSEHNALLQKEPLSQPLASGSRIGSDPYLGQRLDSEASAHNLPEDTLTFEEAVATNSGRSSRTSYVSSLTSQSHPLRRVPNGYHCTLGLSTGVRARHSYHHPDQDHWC
T1 sequence (P54287 whole entry partner): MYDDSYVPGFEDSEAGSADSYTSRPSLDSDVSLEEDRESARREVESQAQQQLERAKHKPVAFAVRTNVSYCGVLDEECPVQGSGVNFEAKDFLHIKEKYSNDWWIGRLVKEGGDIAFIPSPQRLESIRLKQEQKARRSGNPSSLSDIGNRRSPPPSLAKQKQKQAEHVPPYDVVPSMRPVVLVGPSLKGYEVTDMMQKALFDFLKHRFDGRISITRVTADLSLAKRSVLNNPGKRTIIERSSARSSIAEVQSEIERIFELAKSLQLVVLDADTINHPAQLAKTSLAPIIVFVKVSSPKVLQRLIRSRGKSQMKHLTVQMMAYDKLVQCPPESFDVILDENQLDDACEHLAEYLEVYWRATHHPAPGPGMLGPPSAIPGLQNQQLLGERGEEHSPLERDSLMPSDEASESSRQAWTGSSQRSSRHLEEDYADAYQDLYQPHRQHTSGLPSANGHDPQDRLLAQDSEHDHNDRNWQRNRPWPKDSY
T1 sequence (P54290 25-944 partner limits assumed): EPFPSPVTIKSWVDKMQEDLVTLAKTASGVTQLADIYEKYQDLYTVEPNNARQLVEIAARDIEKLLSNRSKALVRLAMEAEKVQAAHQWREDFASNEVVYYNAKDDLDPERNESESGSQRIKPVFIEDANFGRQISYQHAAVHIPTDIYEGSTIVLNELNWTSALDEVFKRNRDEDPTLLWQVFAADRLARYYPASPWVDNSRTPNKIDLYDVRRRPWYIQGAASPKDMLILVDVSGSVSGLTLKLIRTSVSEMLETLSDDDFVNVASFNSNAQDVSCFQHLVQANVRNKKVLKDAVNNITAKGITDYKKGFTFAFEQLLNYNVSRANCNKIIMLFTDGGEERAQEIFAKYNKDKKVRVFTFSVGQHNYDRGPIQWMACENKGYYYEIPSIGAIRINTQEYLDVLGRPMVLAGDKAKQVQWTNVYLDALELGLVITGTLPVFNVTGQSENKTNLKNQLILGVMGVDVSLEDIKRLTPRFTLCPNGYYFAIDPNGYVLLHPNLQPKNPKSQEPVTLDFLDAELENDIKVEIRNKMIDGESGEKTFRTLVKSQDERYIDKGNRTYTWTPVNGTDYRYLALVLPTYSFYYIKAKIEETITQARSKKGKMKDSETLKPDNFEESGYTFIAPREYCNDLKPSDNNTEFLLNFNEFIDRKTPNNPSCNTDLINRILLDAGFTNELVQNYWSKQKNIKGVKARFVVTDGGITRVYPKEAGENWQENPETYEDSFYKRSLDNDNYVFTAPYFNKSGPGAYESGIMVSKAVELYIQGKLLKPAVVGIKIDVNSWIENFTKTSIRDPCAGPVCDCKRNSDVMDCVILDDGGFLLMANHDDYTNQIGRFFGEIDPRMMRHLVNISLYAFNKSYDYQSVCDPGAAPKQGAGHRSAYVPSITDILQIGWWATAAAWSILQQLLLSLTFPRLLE
T1 sequence (P54290 945-1091 partner limits assumed): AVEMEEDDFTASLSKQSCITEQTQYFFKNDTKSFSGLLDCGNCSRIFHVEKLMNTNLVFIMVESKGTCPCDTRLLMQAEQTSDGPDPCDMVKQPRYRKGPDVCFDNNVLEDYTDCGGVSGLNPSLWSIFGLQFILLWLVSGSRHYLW

Regarding `CC1=C(C(N)=O)C(c2cccc(Cl)c2)C(C(=O)OC/C=C/c2ccccc2)=C(C)N1` (stereo not drawn) [Example 8, (3-phenyl-2-propene-1-yl) 5-carbamoyl-4-(3-chlorophenyl) -2,6-dimethyl-1,4-dihydropyridine-3-carboxylate], in the assay on L-type calcium channel, the pIC50 is 7.49 and the “L-type inhibition 100 nM (%)” value was 75%. Further, the inhibition at 0.1 µM at N-type calcium channel was found to be 31.4%.

Consider `CC1=C(C#N)C(c2cccc(Cl)c2)C(C(=O)OC/C=C/c2ccccc2)=C(C)N1` (stereo not drawn) [Example 9, (3-phenyl-2-propene-1-yl) 4-(3-chlorophenyl) -5-cyano-2,6-dimethyl-1,4-dihydropyridine-3-carboxylate], for which, in the assay with L-type calcium channel, the pIC50 is 7.09 and the “L-type inhibition 100 nM (%)” value was 56%. Besides, on N-type calcium channel, the inhibition at 0.1 µM came to 21.3%.

As for `CC1=C(C(=O)O)C(c2cccc(Cl)c2)C(C(=O)OCC(=O)Nc2ccccc2)=C(C)N1` (stereo not drawn) [Example 14, mono(phenylcarbamoylmethyl) 4-(3-chlorophenyl)-2,6-dimethyl-1,4-dihydropyridine-3,5-dicarboxylate], in the assay on L-type calcium channel, the pIC50 is 7.30 and the “L-type inhibition 100 nM (%)” value was 70%. Also, the inhibition at 0.1 µM on N-type calcium channel was 28.6%.

In the case of `COc1cccc(C2C(C(=O)O)=C(C)NC(C)=C2C(=O)OC/C=C/c2ccccc2)c1` (stereo not drawn) [Example 20, mono(3-phenyl-2-propene-1-yl) 4-(3-methoxyphenyl)-2,6-dimethyl-1,4-dihydropyridine-3,5-dicarboxylate], in the assay with L-type calcium channel, the pIC50 was 6.60 and the “L-type inhibition 100 nM (%)” value is on record as 38%. In addition, the inhibition at 0.1 µM at N-type calcium channel is 24.3%.

On to `CC1=C(C(=O)O)C(c2cccc(C#N)c2)C(C(=O)OC/C=C/c2ccccc2)=C(C)N1` (stereo not drawn) [Example 3, mono(3-phenyl-2-propene-1-yl) 4-(3-cyanophenyl)-2,6-dimethyl-1,4-dihydropyridine-3,5-dicarboxylate], for which, in the assay on L-type calcium channel, the pIC50 was 8.20 and the “L-type inhibition 100 nM (%)” value is 98%. Further, the inhibition at 0.1 µM at N-type calcium channel amounted to 47.5%.
